In PMC3836566 (Chemical research in toxicology, 2013):
Entries after “also recorded” stand apart in the source; their conditions may differ.

Assays:
[1] = biological target: thyroid hormone sulfotransferase activity in pooled human liver cytosol; test: Inhibition of 3,3′-T2 sulfotransferase activity; conditions: for IC50: read-out: IC50 (nM) (95% CI) for the inhibition of 3,3′-T2S formation, 1 μM 3,3′-T2, 0.25 mg protein/ml pooled human liver cytosol, 50 μM PAPS, 30 min, 37°C; for inhibition of 3,3′-T2 sulfation (result in words): range of concentrations tested 10–1000 nM
[2] = test system: thyroid hormone sulfotransferase activity in pooled human liver cytosol; test: Mechanism of 3,3′-T2 sulfotransferase inhibition; type: biochemical; conditions: 3,3′-T2 0–5000 nM with varying 4-OH BDE 90; Vmax lower, apparent Km unchanged
SULT1A3 = conditions: read-out: Km of 3,3′-T2 for SULT1A3; cited from earlier work
[3] = test system: thyroid hormone sulfotransferase activity in pooled human liver cytosol; test: 3,3′-T2 sulfation kinetics in pooled human liver cytosol; type: biochemical
[4] = test system: thyroid hormone sulfotransferase activity; test: as above; type: biochemical; conditions: human, pooled human liver cytosol
SULT1A1 = conditions: read-out: Km of 3,3′-T2 for SULT1A1; cited from earlier work
SULT1E1 = conditions: read-out: Km of 3,3′-T2 for SULT1E1; cited from earlier work
SULT2A1 = conditions: read-out: Km of 3,3′-T2 for SULT2A1; cited from earlier work

Oc1c(I)cc(I)cc1I [2,4,6-TIP, 2,4,6-triiodophenol]
IC50 [1]: 140 nM

CC(C)(c1cc(Cl)c(O)c(Cl)c1)c1cc(Cl)c(O)c(Cl)c1 [TCBPA, 3,3′,5,5′-tetrachlorobisphenol A]
IC50 [1]: 340 nM

CC(C)(c1cc(Br)c(O)c(Br)c1)c1cc(Br)c(O)c(Br)c1 [TBBPA, tetrabromobisphenol A]
IC50 [1]: 460 nM

Oc1cc(Oc2ccc(Br)cc2Br)ccc1Br [3′-OH BDE 28, 3′-OH 2,4,4′-triBDE]
IC50 [1]: 190 nM

Oc1cc(Br)cc(Br)c1Oc1cc(Br)c(Br)cc1Br [6′-OH BDE 99, 6′-OH 2,2′,4,4′,5-pentaBDE]
IC50 [1]: 310 nM

Oc1ccc(C(c2ccc(O)cc2)(C(F)(F)F)C(F)(F)F)cc1 [BPA-AF, 4,4′-(hexafluoroisopropylidene)diphenol]
IC50 [1]: 8590 nM

Brc1ccc(Oc2ccc(Br)cc2Br)c(Br)c1 [BDE 47, 2,2′,4,4′-tetrabromodiphenyl ether]
inhibition of 3,3′-T2 sulfation (result in words) [1]: did not inhibit 3,3′-T2 sulfation; also recorded: did not show inhibition
inhibition of 3,3′-T2 sulfation (result in words) ([1]; listed as BDE-47): did not show sulfotransferase inhibition

Oc1cc(Br)c(Oc2cc(Br)c(Br)cc2Br)cc1Br [4′-OH BDE 101, 4′-OH 2,2′,4,5, 5′-pentaBDE]
IC50 [1]: 640 nM

Oc1cc(Cl)ccc1Oc1ccc(Cl)cc1Cl [Triclosan, triclosan]
fold less potent than 3′-OH BDE 28 ([1]; 3,3′-T2 sulfotransferase inhibition potency): approximately 7 fold
IC50 [1]: 1410 nM

Oc1cccc(Oc2ccc(Br)cc2Br)c1 [3′-OH BDE 7, 3′-OH 2,4-diBDE]
IC50 [1]: 410 nM

Oc1c(F)cc(F)cc1F [2,4,6-TFP, 2,4,6-trifluorophenol]
IC50 [1]: 4.6 nM

Oc1c(Br)c(Br)c(Oc2c(Br)cc(Br)c(Br)c2Br)c(Br)c1Br [4′-OH BDE 201, 4′-OH 2,2′,3,3′,4,5′,6,6′-octaBDE]
IC50 [1]: 510 nM

Oc1c(Br)ccc(Oc2ccc(Br)cc2Br)c1Br [3-OH BDE 47, 3-OH 2,2′,4,4′-tetraBDE]
IC50 [1]: 60 nM

Oc1c(Br)cc(Oc2ccc(Br)cc2Br)c(Br)c1Br [4-OH BDE 90, 4-OH 2,2′,3,4′,5-pentaBDE]
inhibition mechanism [2]: non-competitive
IC50 [1]: 24 nM

CC(C)(c1cc(I)c(O)c(I)c1)c1cc(I)c(O)c(I)c1 [TIBPA, 3,3′,5,5′-tetraiodobisphenol A]
IC50 [1]: 13200 nM

Oc1ccccc1Oc1ccc(Br)cc1 [2′-OH BDE 3, 2′-OH 4-monoBDE]
IC50 [1]: 500 nM

Oc1c(Br)cc(Br)cc1Br [2,4,6-TBP, 2,4,6-tribromophenol]
IC50 [1]: 8.3 nM

Oc1cc(Oc2cc(Br)c(Br)cc2Br)c(Br)cc1Br [5′-OH BDE 99, 5′-OH 2,2′,4,4′,5-pentaBDE]
IC50 [1]: 520 nM

Oc1cc(Br)c(Oc2ccc(Br)cc2Br)cc1Br [4′-OH BDE 49, 4′-OH 2,2′,4,5′-tetraBDE]
IC50 [1]: 650 nM

Oc1cc(Oc2ccc(Br)cc2Br)c(Br)cc1Br [5-OH BDE 47, 5-OH 2,2′,4,4′-tetraBDE]
IC50 [1]: 400 nM

N[C@@H](Cc1ccc(Oc2ccc(O)c(I)c2)c(I)c1)C(=O)O [3,3′-T2, 3,3′-diiodothyronine]
Km (SULT1A3): 31 to 35 µM
3,3′-T2S formation rate under standard conditions ([3]; 1 μM 3,3′-T2, 30 min incubation, 0.25 mg protein/ml): 70–80 pmol/min.mg protein
Vmax for 3,3′-T2 sulfate formation ([3]; pooled human liver cytosol 0.25 mg protein/ml, 30 min): 153 ± 6.6 pmol/min.mg protein
Km ([3]; read-out: apparent Km for the 3,3′-T2 sulfation reaction, pooled human liver cytosol 0.25 mg protein/ml, 30 min): 1.07 ± 0.12 µM
microsomal CLint [4]: 145 µL/min/mg
Km (SULT1A1): 0.12 µM
Km (SULT1E1): 3.5 to 9.7 µM
Km (SULT2A1): 3 µM

Oc1c(Br)cc(Br)c(Oc2cc(Br)c(Br)cc2Br)c1Br [3′-OH BDE 154, 3-OH 2,2′,4,4′,5,6′-hexaBDE]
IC50 [1]: 80 nM

Oc1cc(Br)cc(Br)c1Oc1ccc(Br)cc1Br [6-OH BDE 47, 6-OH 2,2′,4,4′-tetraBDE]
IC50 [1]: 130 nM
